Measurements as given in patent publication US6914077B2, “Mite repellant and/or miticide composition” (Kao Corporation, priority 2001, dated 2005).
Where two headings read alike, the source gives them in different places.

What was measured:
Type in all cases: in vivo
[1] = test system: Dermatophagoides farinae Hughes; test: Mite repellent effect test (impregnated black paper); conditions: mites counted after 15 minutes, vs acetone control
Description: The repellent effects of compounds shown in Table 1 were evaluated in accordance with the following method. 1. Mite (or mites) under test: Dermatophagoides farinae Hughes. 2. Testing method: Each test compound was diluted with acetone, black paper 2.5 cm square was impregnated with the diluted test compound in such a manner that the test compound is impregnated in a proportion of 100 μg or 1,000 μg per cm^2 and the black paper was air-dried under room temperature for 2 hours. Black paper treated with acetone alone was also provided as a control group. Mites grown at high density were transferred together with a medium to a glass batt (15×20 cm), and a sheet of gauze cut out in the same size was placed thereon. This medium was placed in a plastic closed container controlled at relative humidity of at least 85% with saturated brine and incubated at 25° C. Three sheets of the black paper treated with the test compound were arranged side by side at intervals of at least 5 mm on the gauze to count the number of the mites climbed up the front and back surfaces of the black paper after 15 minutes. This process was repeated 3 times to find an average value, and it was compared with the control group to calculate out a repelling rate in accordance with the following equation. Repelling rate={(A−B)/A}×100(%) wherein A is the number of mites climbed up in the control group, and B is the number of mites climbed up in the treated group.

[2] = test system: Dermatophagoides farinae Hughes; test: Mite growth inhibition test in treated medium; conditions: for inhibition at 0.045 % strength: 0.045 % by weight in medium; for inhibition at 0.12 % strength: 0.12 % by weight in medium; for inhibition at 0.23 % strength: 0.23 % by weight in medium; for inhibition at 0.34 % strength: 0.34 % by weight in medium
Description: The inhibitory effect of methyl dihydrojasmonate on the growth of mites was evaluated in accordance with the following method. • 1. Mite (or Mites) under test: Dermatophagoides farinae Hughes. • 2. Testing method:
After a predetermined amount of methyl dihydrojasmonate diluted with ethanol was added to mite-free sterilized medium (10 g; MF powder feed; Oriental Yeast Co., Ltd.), and both were mixed, the mixture was air-dried at room temperature for at least 3 hours to provide a treated group. A medium mixed with ethanol was provided as a control group. Mites sufficiently grown with the same medium as described above in advance were fully mixed with the medium, and this mixture (1 g) was mixed into the test medium containing methyl dihydrojasmonate and control medium, respectively. After fully stirred, the mites were raised at 25° C. for 22 days. A sample (0.1 g) was taken out of each medium to count the number of active mites through a microscope, thereby calculating out a mite growth-inhibiting rate. Incidentally, the test was repeated 3 times to conduct the evaluation in terms of the average value thereof. Mite growth-inhibiting rate={(T−S)/T}×100 (%) wherein T is the number of viable mites in the control group, and S in the number of viable mites in the treated group.

[3] = test system: Dermatophagoides farinae Hughes; test: Miticidal effect test (impregnated folded filter paper); conditions: 1,000 μg per cm^2 on filter paper, 25° C.
Description: The miticidal effects of compounds shown in Table 2 were evaluated in accordance with the following method. • 1. Mite or Mites under test: Dermatophagoides farinae Hughes. • 2. Testing method:
Each test compound was diluted with acetone, filter paper 5×10 cm in size was impregnated with the diluted test compound in such a manner that the test compound is impregnated in a proportion of 1,000 μg per cm^2, and the filter paper was air-dried at room temperature for 2 hours. Filter paper treated with acetone alone was also provided as a control group. Each filter paper was folded in two, and 20 to 40 mites were freed therein to close the open portion with aclip in such a manner that the mites cannot escape. After the filter paper was incubated for 24 hours or 48 hours in an environment of 25° C. and relative humidity of at least 80%, the numbers of the living or dead mites are calculated through a stereoscopic microscope. This process was repeated 3 times to find an average lethality, and it was compared with the untreated group to calculate out a compensated lethality in accordance with the following equation. Compensated lethality={(Y−X)/(100−X)}×100 (%) wherein X is an average lethality in the control group, and Y is an average lethality in the treated group.

[4] = concentration of compound 100 μg/cm^2 on black paper
[5] = concentration of compound 1,000 μg/cm^2 on black paper
[6] = 8th day, read-out: Growth-inhibiting rate on the 8th day
[7] = 22nd day, read-out: Growth-inhibiting rate on the 22nd day

CCCCCC1C(=O)CCC1CC(=O)OC (stereo not drawn) [Methyl dihydrojasmonate]
Repelling rate [1, 4]: 90%
Repelling rate [1, 5]: 94%
inhibition at 0.045 % strength [2, 6]: 75%
inhibition at 0.045 % strength [2, 7]: 54%
inhibition at 0.12 % strength [2, 6]: 86%
inhibition at 0.12 % strength [2, 7]: 61%
inhibition at 0.23 % strength [2, 6]: 93%
inhibition at 0.23 % strength [2, 7]: 69%
inhibition at 0.34 % strength [2, 6]: 92%
inhibition at 0.34 % strength [2, 7]: 80%
Compensated lethality ([3]; incubation time 24 hr): 100%
Compensated lethality ([3]; incubation time 48 hr): 100%

C/C(=C\CO)CCC[C@H](C)CCC[C@H](C)CCCC(C)C [Phytol]
Repelling rate [1, 4]: 52%
Repelling rate [1, 5]: 72%

CC(C)=CCCC(C)=CCCC(C)=CCO [Farnesol]
Repelling rate [1, 4]: 94%
Repelling rate [1, 5]: 96%
Compensated lethality ([3]; incubation time 24 hr): 63%
Compensated lethality ([3]; incubation time 48 hr): 77%

CC/C=C\CC1C(=O)CCC1CC(=O)OC (stereo not drawn) [Methyl jasmonate]
Repelling rate [1, 4]: 93%
Repelling rate [1, 5]: 97%

C=C(C)C1CC=C(C)C(=O)C1 (stereo not drawn) [Carvone, reference compound]
Repelling rate [1, 4]: 10%
Repelling rate [1, 5]: 29%

CCCCCC1=C(C)CCC1=O [Dihydrojasmone]
Repelling rate [1, 4]: 80%
Repelling rate [1, 5]: 83%

CC/C=C\CC1=C(C)CCC1=O [cis-Jasmone]
Repelling rate [1, 4]: 72%
Repelling rate [1, 5]: 85%

C=CC(C)(O)CCC=C(C)CCC=C(C)C (stereo not drawn) [Nerolidol]
Repelling rate [1, 4]: 80%
Repelling rate [1, 5]: 79%

C=CC(C)(O)CCC=C(C)C (stereo not drawn) [Linalool, reference compound]
Repelling rate [1, 4]: 47%
Repelling rate [1, 5]: 57%
